Measured values reported in patent US20070010566A1, “Thiazolidinones without basic nitrogen, their production and use as pharmaceutical agents” (priority 2005, published 2007).

Experiments:
[1] = target: T1, Recombinant human Plk-1 (6×His) (Homo sapiens, UniProt P53350); test: PLK enzyme assay (33P-γ-ATP incorporation in biotinylated casein, SPA); type: biochemical; conditions: recombinant human Plk-1, casein substrate, 0.5 μmol of ATP, 90 minutes at room temperature; read-out: PLK-1 IC50 [nM] Inhibition
T1 construct: 6×His; made in house; host or cells: baculovirus-infected insect cells (Hi5)
Experimental: Recombinant human Plk-1 (6×His) was purified from baculovirus-infected insect cells (Hi5).
10 ng of (produced in a recombinant manner and purified) PLK enzyme is incubated for 90 minutes at room temperature with biotinylated casein and 33P-γ-ATP as a substrate in a volume of 15 μl in 384-well Greiner small-volume microtiter plates (final concentrations in the buffer: 660 ng/ml of PLK; 0.7 μmol of casein, 0.5 μmol of ATP incl. 400 nCi/ml of 33P-γ-ATP; 10 mmol of MgCl2, 1 mmol of MnCl2; 0.01% NP40; 1 mmol of DTT, protease inhibitors; 0.1 mmol of Na2VO3 in 50 mmol of HEPES, pH 7.5). To complete the reaction, 5 μl of stop solution (500 μmol of ATP; 500 mmol of EDTA; 1% Triton X100; 100 mg/ml of streptavidin-coated SPA beads in PBS) is added. After the microtiter plate is sealed by film, the beads are sedimented by centrifuging (10 minutes, 1500 rpm). The incorporation of 33P-γ-ATP in casein is intended as a measurement of enzyme activity by β-counting.
Test substances are used in various concentrations (0 μmol, as well as in the range of 0.01-30 μmol). The final concentration of the solvent dimethyl sulfoxide is 1.5% in all batches.

[2] = tested on: human MaTu breast tumour cells; test: Proliferation assay (crystal violet staining); type: cell-based; conditions: 96 h, incubated for 4 days with test substance, read-out: Inhibition of the Tumour Cell Proliferation (MaTu) IC50
Experimental: Cultivated human MaTu breast tumour cells were flattened out at a density of 5000 cells/measuring point in a 96-well multititer plate in 200 μl of the corresponding growth medium. After 24 hours, the cells of one plate (zero-point plate) were colored with crystal violet (see below), while the medium of the other plates was replaced by fresh culture medium (200 μl), to which the test substances were added at various concentrations (0 μm, as well as in the range of 0.01-30 μm; the final concentration of the solvent dimethyl sulfoxide was 0.5%). The cells were incubated for 4 days in the presence of test substances. The cell proliferation was determined by coloring the cells with crystal violet: the cells were fixed by adding 20 μl/measuring point of an 11% glutaric aldehyde solution for 15 minutes at room temperature. After three washing cycles of the fixed cells with water, the plates were dried at room temperature. The cells were colored by adding 100 μl/measuring point of a 0.1% crystal violet solution (pH was set at 3 by adding acetic acid). […] The extinction was determined by photometry at a wavelength of 595 nm. The change of cell growth, in percent, was calculated by standardization of the measured values to the extinction values of the zero-point plate (=0%) and the extinction of the untreated (0 μm) cells (=100%).

T1 sequence (P53350 whole entry): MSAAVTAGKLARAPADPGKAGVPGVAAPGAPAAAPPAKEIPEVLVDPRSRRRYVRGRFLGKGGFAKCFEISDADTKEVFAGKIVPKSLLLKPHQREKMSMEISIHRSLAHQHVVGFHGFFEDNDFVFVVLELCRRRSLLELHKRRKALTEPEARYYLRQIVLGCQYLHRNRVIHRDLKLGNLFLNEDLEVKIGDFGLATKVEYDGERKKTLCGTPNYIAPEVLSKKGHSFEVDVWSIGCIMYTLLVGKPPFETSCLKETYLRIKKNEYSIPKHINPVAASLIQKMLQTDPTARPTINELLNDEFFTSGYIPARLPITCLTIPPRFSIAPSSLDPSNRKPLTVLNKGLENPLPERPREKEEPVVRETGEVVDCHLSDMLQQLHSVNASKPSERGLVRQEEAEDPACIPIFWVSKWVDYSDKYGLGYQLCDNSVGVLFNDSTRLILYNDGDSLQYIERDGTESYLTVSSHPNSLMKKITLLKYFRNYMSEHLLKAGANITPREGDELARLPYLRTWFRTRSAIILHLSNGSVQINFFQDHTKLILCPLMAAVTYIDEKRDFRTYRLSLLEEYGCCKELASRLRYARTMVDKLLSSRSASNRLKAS

SMILES | IC50 [1] | IC50 [2]
CCn1c(=C(C#N)C(=O)NCC(F)(F)F)sc(=Cc2nc[nH]c2C)c1=O [Example 9] | 230 nM | 4200 nM
CCn1c(=C(C#N)C(=O)NCC#N)sc(=Cc2nc[nH]c2C)c1=O [Example 8] | 250 nM | 3600 nM
